{"source": "patent US10059740B2", "about": "“Integrin interaction inhibitors for the treatment of cancer” (H. LEE MOFFITT CANCER CENTER AND RESEARCH INSTITUTE, INC., priority 2010, dated 2018)", "key": {"[1]": {"system": "peripheral blood mononuclear cells (PBMC)", "assay": "Cell death in normal peripheral blood mononuclear cells, annexin V positivity and FACS", "type": "cell-based", "settings": "6.25-50 ug/ml, six hours", "method": "Peripheral blood mononuclear cells (PBMC) were isolated from a normal donor. Cells were treated with 6.25, 12.5, 25 and 50 ug/ml for six hours and cell death was measured by annexin V positivity and FACS analysis.\n(§1) CD34^+ hematopoietic progenitor cells were isolated from peripheral blood and treated for 2 hrs with integrin interaction inhibitors (12.5 and 50 μg/ml) and then plated in a methylcellulose media supplemented with growth factors supporting myeloid and erythroid colonies. Colonies were counted on day 12 post-plating. […] In addition, we evaluated the toxicity of integrin interaction inhibitors in normal peripheral blood mononuclear cells (PBMC)."}, "U266": {"system": "U266", "assay": "Drug combination, cell viability by CT-Blue assay, Chou and Talalay Combination Index", "type": "cell-based", "settings": "combination with the named agent"}, "[2]": {"assay": "Weight and overt toxicity of mice injected with c-HYD1", "type": "in vivo", "method": "(§2) Briefly, 50,000 H929 myeloma cells were engrafted into the bone implant for 10 days prior to initiation of peptide treatment. Following tumor engraftment mice were randomized (0 time point) and injected with 8 mg/kg c-HYD1 or vehicle control (VC) daily (I.P. injections) for 14 days and every other day from day 14-28 at which time treatment stopped. Tumor burden was measured by circulating Kappa levels by ELISA weekly. N=10 mice for vehicle control (VC) and 9 mice for c-HYD1 treated.\nFIG. 42 is a graph showing the effect of cyclized HYD1 (c-HYD1) injection on the weight of mice."}, "H929 myeloma cells [3]": {"system": "H929 myeloma cells", "type": "cell-based", "method": "H929 cells were treated for 24 hours with varying concentrations of peptide. Cell death was measured by Topro-3 staining and FACS analysis. The IC50 values were obtained from linear regression analysis and an average value was obtained from 3 independent experiments.\nTable 4 legend: Structure activity relationship in H929 myeloma cells of cyclic INTEGRIN INTERACTION INHIBITORS derivatives. The minimal bioactive core sequence of INTEGRIN INTERACTION INHIBITORS WSVVM (SEQ ID NO:85) was cyclized using 2 novel reduced amide bond beta turn promoters and KLKLK (SEQ ID NO:27) as the non-recognition sequence. H929 cells were treated with varying concentrations of the indicated peptide for 24 h. Cell viability was determined using Topro-3 staining and FACS analysis after drug treatment. IC50 values were generated from linear regressions generated from the dose response curves (n=mean of 3 independent experiments).\nUsing combinatorial peptide libraries and a functional binding assay, several peptides have been identified that inhibited α2β1 and α6β1 integrin mediated adhesion of prostate cancer cells to fibronectin, laminin and collagen IV.^1 They identified an all D-amino acid containing peptide referred as HYD1 ([…]) (SEQ ID NO:278) that blocks binding of epithelial prostate carcinoma cells to extracellular matrix components.^2,3 Hazlehurst and co-workers have truncated the N- and C-termini and alanine scan studies identified MVISW (SEQ ID NO:279) as the likely core region of linear D-HYD1 required for biological activity. […] The pentapeptide (KLKLK) (SEQ ID NO:27) was selected as the non-recognition strand to improve the solubility. N- to C-terminus cyclization of linear peptides was done to restrict the number of conformations available to the linear peptide which increases the affinity of the cyclized peptide for its target when the constraint stabilizes the bound conformation of the peptide. We synthesized cyclic D-HYD1 using a novel methylsulfonamide aminoethyl glycine linker T1 that connects two anti-parallel strands. […] The inverso- (peptide 2, Table 4) and partially modified retro-inverso (PMRI) (peptide 10) pentapeptide sequences of the recognition strand of cyclic III (Integrin Interaction Inhibitors also known as cyclic L-HYD1) peptide analogs were subsequently investigated for their potential to block beta integrin mediated cell adhesion. The retro-inverso design of biologically active peptides is a well-known strategy to design all D-amino acid peptides from potentially bioactive all L-peptide sequences with increased stability^4-7.\nA colony forming assay was used to compare induced cell death in H929 multiple myeloma cells. Cells were treated with integrin interaction inhibitors, shown in FIG. 5 and Table 4, and cell death was measured following 24 hour peptide treatment by TOPRO-3 staining and FACS analysis."}, "H929 myeloma cells [4]": {"system": "H929 myeloma cells", "assay": "MM SCID-Hu in vivo model, tumor burden by circulating Kappa levels (ELISA)", "parameters": "species or system mice", "settings": "8 mg/kg I.P. daily 14 days, every other day day 14-28; p<0.05 ANOVA vs vehicle", "method": "as §2, §1"}}, "note": "Where two headings read alike, the source gives them in different places. Starred links: 1 amine or outer side, 2 acyl side, 3 side chain; linkers in the order of their positions; H or OH if unused. Positions of bridges follow the written chain, without caps; N, C: chain ends. Non-standard residues stand in square brackets, D forms with d. Residues, ends and D or L forms follow the SMILES beside them. *: point of attachment. T1 = NH2CH2CH2N(SO2Me)CH2COOH, methylsulfonamido aminoethyl glycine linker; dProlinol(O-CH2CO) = O=C(COC[C@H]1CCCN1[*:1])[*:2]; N(2-Aminoethyl)Gly = O=C(CN(CCN[*:3])[*:1])[*:2]; Nle = CCCC[C@H](N)C(=O)O; Ms = CS(=O)(=O)*"}
{"compound": "CC[C@@H](C)[C@@H](NC(=O)[C@H](N)CCCCN)C(=O)N[C@H](CCCCN)C(=O)N[C@H](CCSC)C(=O)N[C@@H](C(=O)N[C@@H](C(=O)N[C@H](CO)C(=O)N[C@H](Cc1c[nH]c2ccccc12)C(=O)N[C@H](CCCCN)C(=O)NCC(=O)O)[C@H](C)CC)C(C)C", "note": "[HYD1]", "values": [{"measurement": "cell death in normal PBMC", "setting": "[1]", "value": "more potent in MM cells (H929) compared to normal hematopoietic cells"}]}
{"compound": "arsenic trioxide", "values": [{"measurement": "synergy with integrin interaction inhibitors, in words", "setting": "U266", "value": "strong synergism"}]}
{"compound": "COc1cccc2c1C(=O)c1c(O)c3c(c(O)c1C2=O)C[C@@](O)(C(=O)CO)C[C@@H]3O[C@H]1C[C@H](N)[C@H](O)[C@H](C)O1", "note": "[doxorubicin]", "values": [{"measurement": "synergy with integrin interaction inhibitors, in words", "setting": "U266", "value": "strong synergism"}]}
{"compound": "CCCC[C@@H]1NC(=O)CN(S(C)(=O)=O)CCNC(=O)[C@H](CCCCN)NC(=O)[C@H](CC(C)C)NC(=O)[C@H](CCCCN)NC(=O)[C@H](CC(C)C)NC(=O)[C@H](CCCCN)NC(=O)COC[C@H]2CCCN2C(=O)[C@H](Cc2c[nH]c3ccccc23)NC(=O)[C@H](C)NC(=O)[C@H](C(C)C)NC(=O)[C@H](C(C)C)NC1=O", "note": "[c-HYD1] (Ms-[N(2-Aminoethyl)Gly][Nle]VVAW[dProlinol(O-CH2CO)]KLKLK; lactam 1-C)", "values": [{"measurement": "weight loss and overt signs of toxicity", "setting": "[2]", "value": "No weight loss or any overt signs of toxicity were observed"}, {"measurement": "fold more potent than the parent linear HYD1 peptide", "setting": "H929 myeloma cells [3]; H929 cells", "value": 30, "unit": "fold"}, {"measurement": "IC50", "setting": "H929 myeloma cells [3]; H929 cells, 24 hours, Topro-3 and FACS, read-out: IC50 value in H929 cells", "value": 1.2, "unit": "µM"}, {"measurement": "tumor growth (circulating Kappa levels)", "setting": "H929 myeloma cells [4]", "value": "significantly reduces tumor growth"}]}
{"compound": "CCCC[C@@H]1NC(=O)CN(S(C)(=O)=O)CCNC(=O)[C@H](CCCCN)NC(=O)[C@H](CC(C)C)NC(=O)[C@H](CCCCN)NC(=O)[C@H](CCC(N)=O)NC(=O)[C@H](CCCCN)NC(=O)COC[C@H]2CCCN2C(=O)[C@H](Cc2c[nH]c3ccccc23)NC(=O)[C@H](C)NC(=O)[C@H](C(C)C)NC(=O)[C@H](C(C)C)NC1=O", "note": "[Peptide 20, KQKLKT1N*VVAWT3] (Ms-[N(2-Aminoethyl)Gly][Nle]VVAW[dProlinol(O-CH2CO)]KQKLK; lactam 1-C)", "values": [{"measurement": "IC50", "setting": "H929 myeloma cells [3]; 24 h", "value": 18, "unit": "µM"}]}
{"compound": "CSCC[C@@H]1NC(=O)CN(S(C)(=O)=O)CCNC(=O)[C@H](CCCCN)NC(=O)[C@H](CC(C)C)NC(=O)[C@H](CCCCN)NC(=O)[C@H](CC(C)C)NC(=O)[C@H](CCCCN)NC(=O)CN(S(C)(=O)=O)CCNC(=O)[C@H](C)NC(=O)[C@H](CO)NC(=O)[C@H](C(C)C)NC(=O)[C@H](C(C)C)NC1=O", "note": "[III 2]", "values": [{"measurement": "change in activity relative to the inverso peptide L-cINTEGRIN INTERACTION INHIBITORS", "setting": "H929 myeloma cells [3]; alanine scan and analogs, Table 4 legend, H929 cells", "value": "decrease in activity"}]}
{"compound": "L-HYD1: the inverso (L-HYD1) cyclic compound (cyclo(KLKLKMVVSW)-T1; not fully specified (residue 5))", "values": [{"measurement": "potency relative to cyclic D-HYD1", "setting": "H929 myeloma cells [3]; H929 cells", "value": 2, "unit": "fold"}]}
